# Assay results: ChEMBL document CHEMBL1201862, “PubChem BioAssay data set” (2004)
# The source made the active and inactive calls.
# How the values were obtained:
# cells [1] = type: functional, cell-based
# [2] = biological target: Nuclear receptor subfamily 0 group B member 1 (Homo sapiens, UniProt P51843); type: functional, cell-based;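 note: HEK293T cells transfected with SF-1 and DAX-1 plus StAR promoter luciferase reporter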
# cells [3] = type: functional, cell-based; remark: listed apart in the source
# cells [4] = type: functional, cell-based; remark: listed apart in the source
# Beta-lactamase [5] = biological target: Beta-lactamase (Salmonella choleraesuis (strain SC-B67), UniProt Q5J463); experiment: Epi-absorbance-based counterscreen for selective VIM-2 inhibitors: dose response biochemical high throughput screening assay to identify inhibitors of TEM-1 serine-beta-lactamase.
# Beta-lactamase [6] = biological target: T1, Beta-lactamase (Pseudomonas aeruginosa, UniProt Q79MP6); experiment: […] counterscreen for selective VIM-2 inhibitors: dose response biochemical high throughput screening assay to identify inhibitors of IMP-1 metallo-beta-lactamase.
# Beta-lactamase [7] = biological target: T1, Beta-lactamase; experiment: IMP-1 metallo-beta-lactamase inhibitors, dose response, selectivity assay for VIM-2 inhibitor project, biochemical, epi-absorbance (AID 1920)
# [8] = Luminescence Cell-Based Dose Confirmation HTS to Identify Inhibitors of Platelet Dense Granule Release. [Related pubchem assays: 1663 (Primary HTS), 1678 (Summary of Project)]; type: functional
# Galanin receptor type 3 = Galanin receptor type 3 (Homo sapiens, UniProt O60755); experiment: Fluorescence-based cell-based primary high throughput dose response assay to identify antagonists of the Galanin Receptor 3 (GalR3).; type: functional
# cells [9] = type: functional, cell-based; settings: HEK-CNG
# [10] = biological target: Luciferin 4-monooxygenase (Photinus pyralis, UniProt P08659); experiment: firefly luciferase enzyme inhibitors, dose response, biochemical, luminescence (AID 1891)
# cells [11] = experiment: cells
# [12] = biological target: T2, Beta-2 adrenergic receptor (Homo sapiens, UniProt P07550); experiment: Dose response for HTS for Beta-2AR agonists via FAP method from Powderset3.; type: functional
# [13] = biological target: T2, Beta-2 adrenergic receptor; experiment: beta2AR agonists driving receptor internalization, dose response, cell-based, FAP fluorogen, flow cytometry, cherry pick 1 (AID 588763); type: functional
# [14] = biological target: T3, Trace amine-associated receptor 1 (Homo sapiens, UniProt Q96RJ0); experiment: Counterscreen for antagonists of the human trace amine associated receptor 1 (hTAAR1): Fluorescence-based cell-based high throughput dose response assay to identify TAAR1 Agonists.; type: functional
# T3 sequence (Q96RJ0 whole entry): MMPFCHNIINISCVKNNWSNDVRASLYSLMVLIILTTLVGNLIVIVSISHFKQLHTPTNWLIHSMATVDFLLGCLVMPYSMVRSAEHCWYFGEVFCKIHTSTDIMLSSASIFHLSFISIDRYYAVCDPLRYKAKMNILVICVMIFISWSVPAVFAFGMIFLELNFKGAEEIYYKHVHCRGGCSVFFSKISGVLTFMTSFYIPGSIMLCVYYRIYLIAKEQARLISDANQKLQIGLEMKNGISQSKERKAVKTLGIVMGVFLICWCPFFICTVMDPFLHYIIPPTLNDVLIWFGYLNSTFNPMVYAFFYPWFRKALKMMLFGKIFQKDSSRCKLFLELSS
# [15] = biological target: T3, Trace amine-associated receptor 1; experiment: Fluorescence-based cell-based high throughput dose response assay to identify antagonists of the human trace amine associated receptor 1 (TAAR1).; type: functional
# [16] = Counterscreen for […] of the human trace amine associated receptor 1 (TAAR1): Fluorescence-based cell-based high throughput dose response assay to identify nonselective Ga16 agonists.; type: functional
# H9c2 = experiment: cells; type: functional, cell-based; settings: Rattus norvegicus, H9c2, Myocardium;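 note: confirmatory concentration-response retest of ultra-high-throughput screening hits for modulation of myocardial damage; cell death induced by hydrogen peroxide oxidative stress; compound pretreatment for 60 min then peroxide exposure for 2 h; potency is for protecting the cells against peroxide damage rather than for killing them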
# [17] = Counterscreen for antagonists of the human trace amine associated receptor 1 (hTAAR1): Fluorescence-based cell-based high throughput dose response assay to identify nonselective Ga16 antagonists.; type: functional
# Beta-galactosidase = Beta-galactosidase (Escherichia coli, UniProt Q8VNN2); experiment: Dose response counterscreen for EBI2 assay utilizing the enzyme, b-galactosidase.; type: functional
# [18] = biological target: T4, Oxysterols receptor LXR-beta (Homo sapiens, UniProt P55055); type: functional, cell-based;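 note: agonist activity at LXR measured by a cell-based luminescence readout across a dose range, run as a counterscreen for daf-12 agonists; HEK293 cells with Gal4-LXR fusion and GAL4-driven luciferase reporter; potency for activation of Gal4-LXR reporter so compounds are agonists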
# T4 sequence (P55055 whole entry): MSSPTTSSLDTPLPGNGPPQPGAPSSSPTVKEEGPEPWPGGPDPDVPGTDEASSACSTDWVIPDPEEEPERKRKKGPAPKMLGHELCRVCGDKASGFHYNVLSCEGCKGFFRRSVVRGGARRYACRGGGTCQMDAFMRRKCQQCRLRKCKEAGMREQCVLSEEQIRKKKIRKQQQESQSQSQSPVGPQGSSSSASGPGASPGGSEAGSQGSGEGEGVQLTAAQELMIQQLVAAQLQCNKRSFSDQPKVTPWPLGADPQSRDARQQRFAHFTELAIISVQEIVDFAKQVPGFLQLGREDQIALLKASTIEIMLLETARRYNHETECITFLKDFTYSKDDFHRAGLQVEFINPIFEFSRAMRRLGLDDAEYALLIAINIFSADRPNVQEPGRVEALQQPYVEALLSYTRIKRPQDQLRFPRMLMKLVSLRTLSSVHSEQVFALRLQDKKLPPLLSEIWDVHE
# Caspase-3 = biological target: T5, Caspase-3 (Homo sapiens, UniProt P42574); experiment: Dose-response confirmation of uHTS inhibitor hits of Sentrin-Specific Protease 8 in a Caspase-3 Fluorescence assay.; type: functional
# T5 sequence (P42574 whole entry): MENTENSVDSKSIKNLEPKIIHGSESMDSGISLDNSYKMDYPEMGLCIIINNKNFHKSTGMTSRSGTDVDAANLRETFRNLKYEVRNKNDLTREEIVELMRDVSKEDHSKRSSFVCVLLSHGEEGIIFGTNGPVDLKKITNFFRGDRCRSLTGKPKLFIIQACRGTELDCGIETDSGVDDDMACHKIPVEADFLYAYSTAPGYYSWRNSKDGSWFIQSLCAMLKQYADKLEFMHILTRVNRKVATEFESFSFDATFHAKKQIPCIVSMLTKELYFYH
# [19] = biological target: T6, Sentrin-specific protease 8 (Homo sapiens, UniProt Q96LD8); type: functional
# T6 sequence (Q96LD8 whole entry): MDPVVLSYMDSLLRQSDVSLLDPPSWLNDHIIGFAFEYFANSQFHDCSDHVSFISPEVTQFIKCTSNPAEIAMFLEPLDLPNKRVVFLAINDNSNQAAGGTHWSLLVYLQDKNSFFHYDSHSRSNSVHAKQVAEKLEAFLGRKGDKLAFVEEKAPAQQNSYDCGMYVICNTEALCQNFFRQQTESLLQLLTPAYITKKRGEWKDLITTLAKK
# [20] = biological target: T6, Sentrin-specific protease 8; type: functional; remark: listed apart in the source
# [21] = biological target: 1-phosphatidylinositol 4,5-bisphosphate phosphodiesterase gamma-1 (Homo sapiens, UniProt P19174); experiment: Counterscreen for inhibitors of phospholipase C isozymes (PLC-B3): Fluorescence-based biochemical high throughput dose response assay to identify inhibitors of phospholipase C isozymes (PLC-gamma1).
# [22] = biological target: 1-phosphatidylinositol 4,5-bisphosphate phosphodiesterase beta-3 (Homo sapiens, UniProt Q01970); experiment: Fluorescence-based biochemical high throughput dose response assay to identify inhibitors of phospholipase C isozymes (PLC-B3).
# [23] = biological target: Latent membrane protein 1 (Human herpesvirus 4 (strain B95-8), UniProt P03230); experiment: TES1-eGFP NF-kB reporter inhibition versus Tet-On dsRED, dose response, selectivity assay for LMP1 NF-kB inhibitor project, imaging, HEK293T, dual-color eGFP/dsRED, cherry-picks (AID 588398); type: functional, cell-based
# [24] = biological target: Botulinum neurotoxin type F (Clostridium botulinum, UniProt P30996); experiment: High-throughput multiplex microsphere dose response for inhibitors of toxin protease, specifically Botulinum neurotoxin light chain F protease, compounds from Cherry Pick 02.; type: functional; settings: read-out: EC50_MICROM
# Protein skinhead-1 = biological target: T7, Protein skinhead-1 (Caenorhabditis elegans, UniProt P34707); type: functional
# T7 sequence (P34707 whole entry): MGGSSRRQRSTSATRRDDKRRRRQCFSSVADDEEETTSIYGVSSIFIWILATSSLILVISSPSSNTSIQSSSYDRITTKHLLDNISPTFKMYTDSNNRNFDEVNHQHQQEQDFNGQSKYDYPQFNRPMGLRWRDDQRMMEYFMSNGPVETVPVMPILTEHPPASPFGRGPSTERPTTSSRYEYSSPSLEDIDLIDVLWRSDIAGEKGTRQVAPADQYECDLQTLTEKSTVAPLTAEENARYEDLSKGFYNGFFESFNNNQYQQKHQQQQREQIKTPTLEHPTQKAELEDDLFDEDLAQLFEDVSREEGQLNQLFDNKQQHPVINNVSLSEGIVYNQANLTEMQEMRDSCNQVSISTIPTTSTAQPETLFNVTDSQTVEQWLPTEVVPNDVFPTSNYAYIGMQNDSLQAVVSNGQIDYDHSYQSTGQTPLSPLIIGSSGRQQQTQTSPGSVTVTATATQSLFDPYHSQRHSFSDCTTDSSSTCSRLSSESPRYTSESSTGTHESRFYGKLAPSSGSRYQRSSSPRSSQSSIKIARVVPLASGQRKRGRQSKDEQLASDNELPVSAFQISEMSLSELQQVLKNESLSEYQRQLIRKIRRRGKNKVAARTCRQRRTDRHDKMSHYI
# cells [25] = settings: HEK293
# [26] = biological target: T2, Beta-2 adrenergic receptor; experiment: Dose response for HTS for Beta-2AR agonists via FAP method from Powderset2.; type: functional
# [27] = biological target: T8, Diacylglycerol lipase-beta (Mus musculus, UniProt Q91WC9); experiment: Late stage assay provider results from the probe development effort to identify inhibitors of diacylglycerol lipase, beta (DAGLb): LCMS-based biochemical dose response assay.; type: functional
# [28] = biological target: Monoacylglycerol lipase ABHD6 (Mus musculus, UniProt Q8R2Y0); experiment: Late stage assay provider results from the probe development effort to identify inhibitors of diacylglycerol lipase, beta (DAGLb): fluorescence-based dose-response biochemical gel-based competitive Activity-Based Protein Profiling (ABPP) inhibition of antitarget ABHD6 in vitro, set 2.; type: functional
# [29] = biological target: T8, Diacylglycerol lipase-beta; experiment: Late stage assay provider results from the probe development effort to identify inhibitors of diacylglycerol lipase, beta (DAGLb): fluorescence-based dose-response biochemical gel-based competitive Activity-Based Protein Profiling (ABPP) inhibition of DAGLb in vitro.; type: functional
# Vero = experiment: Vero cell toxicity, dose response, cytotoxicity control, plate reader, cherry-pick samples (AID 687020); type: functional, cell-based; settings: Chlorocebus sabaeus
# [30] = biological target: Metabotropic glutamate receptor 3 (Rattus norvegicus, UniProt P31422); experiment: mGlu3 NAM potency via calcium readout, dose response, mGlu3 NAM project, TREx293 cells, Galpha15, calcium flux (AID 651840); type: functional
# [31] = A Cell-Based Confirmatory Screen for Compounds that Inhibit VEEV, TC-83 (3).; type: functional
# [32] = HEK293 cell cytotoxicity, dose response, cytotoxicity control, cherry-picks, set 5 (AID 1053117); type: functional, cell-based
# [33] = HepG2 cell cytotoxicity, dose response, cytotoxicity control, cherry-picks, set 5 (AID 1053118); type: functional, cell-based
# [34] = biological target: Potassium channel subfamily K member 9 (Homo sapiens, UniProt Q9NPC2); experiment: TASK3 (KCNK9) channel inhibitors, thallium flux, SAR follow-up, selectivity assay for TASK1 inhibitor project, cell-based, FluxOR thallium flux, concentration-response (AID 652211); type: functional;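 note: potency is for inhibitors of the channel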
# T2 sequence (P07550 whole entry): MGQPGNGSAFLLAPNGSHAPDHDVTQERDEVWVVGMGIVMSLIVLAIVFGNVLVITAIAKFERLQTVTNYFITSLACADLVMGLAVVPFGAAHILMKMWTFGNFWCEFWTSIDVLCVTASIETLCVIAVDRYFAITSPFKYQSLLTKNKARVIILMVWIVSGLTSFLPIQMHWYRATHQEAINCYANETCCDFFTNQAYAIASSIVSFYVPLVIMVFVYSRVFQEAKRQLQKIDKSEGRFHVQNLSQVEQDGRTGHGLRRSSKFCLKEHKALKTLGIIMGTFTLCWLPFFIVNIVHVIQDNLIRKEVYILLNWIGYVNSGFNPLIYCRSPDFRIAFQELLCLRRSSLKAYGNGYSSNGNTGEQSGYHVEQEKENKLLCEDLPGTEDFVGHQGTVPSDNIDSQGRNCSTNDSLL
# T8 sequence (Q91WC9 whole entry): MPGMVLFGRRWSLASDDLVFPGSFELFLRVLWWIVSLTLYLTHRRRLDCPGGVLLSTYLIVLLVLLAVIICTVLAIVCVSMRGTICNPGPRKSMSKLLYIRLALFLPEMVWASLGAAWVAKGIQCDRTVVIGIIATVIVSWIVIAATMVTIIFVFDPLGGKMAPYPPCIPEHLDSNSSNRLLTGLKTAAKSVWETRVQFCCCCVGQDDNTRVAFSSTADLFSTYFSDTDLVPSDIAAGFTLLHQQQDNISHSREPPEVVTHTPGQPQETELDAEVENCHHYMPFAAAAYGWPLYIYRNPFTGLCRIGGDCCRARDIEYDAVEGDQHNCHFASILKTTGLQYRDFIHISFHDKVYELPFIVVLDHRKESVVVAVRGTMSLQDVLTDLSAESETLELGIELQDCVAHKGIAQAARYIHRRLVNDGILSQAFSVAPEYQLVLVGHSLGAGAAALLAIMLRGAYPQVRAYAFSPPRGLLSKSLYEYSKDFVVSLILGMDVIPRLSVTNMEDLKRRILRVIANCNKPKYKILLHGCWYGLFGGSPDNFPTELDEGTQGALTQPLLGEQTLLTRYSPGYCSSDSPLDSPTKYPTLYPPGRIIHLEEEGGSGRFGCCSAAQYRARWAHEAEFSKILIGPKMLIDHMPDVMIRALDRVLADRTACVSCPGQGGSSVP
# T1 sequence (Q79MP6 whole entry): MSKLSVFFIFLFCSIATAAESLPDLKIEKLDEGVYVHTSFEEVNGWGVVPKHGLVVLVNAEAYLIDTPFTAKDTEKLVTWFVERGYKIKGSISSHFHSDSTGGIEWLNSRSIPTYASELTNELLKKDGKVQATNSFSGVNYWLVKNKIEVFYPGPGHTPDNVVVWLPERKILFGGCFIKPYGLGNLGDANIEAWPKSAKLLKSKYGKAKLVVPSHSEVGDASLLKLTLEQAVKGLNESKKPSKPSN
# Sequence of Metabotropic glutamate receptor 3 (P31422 whole entry): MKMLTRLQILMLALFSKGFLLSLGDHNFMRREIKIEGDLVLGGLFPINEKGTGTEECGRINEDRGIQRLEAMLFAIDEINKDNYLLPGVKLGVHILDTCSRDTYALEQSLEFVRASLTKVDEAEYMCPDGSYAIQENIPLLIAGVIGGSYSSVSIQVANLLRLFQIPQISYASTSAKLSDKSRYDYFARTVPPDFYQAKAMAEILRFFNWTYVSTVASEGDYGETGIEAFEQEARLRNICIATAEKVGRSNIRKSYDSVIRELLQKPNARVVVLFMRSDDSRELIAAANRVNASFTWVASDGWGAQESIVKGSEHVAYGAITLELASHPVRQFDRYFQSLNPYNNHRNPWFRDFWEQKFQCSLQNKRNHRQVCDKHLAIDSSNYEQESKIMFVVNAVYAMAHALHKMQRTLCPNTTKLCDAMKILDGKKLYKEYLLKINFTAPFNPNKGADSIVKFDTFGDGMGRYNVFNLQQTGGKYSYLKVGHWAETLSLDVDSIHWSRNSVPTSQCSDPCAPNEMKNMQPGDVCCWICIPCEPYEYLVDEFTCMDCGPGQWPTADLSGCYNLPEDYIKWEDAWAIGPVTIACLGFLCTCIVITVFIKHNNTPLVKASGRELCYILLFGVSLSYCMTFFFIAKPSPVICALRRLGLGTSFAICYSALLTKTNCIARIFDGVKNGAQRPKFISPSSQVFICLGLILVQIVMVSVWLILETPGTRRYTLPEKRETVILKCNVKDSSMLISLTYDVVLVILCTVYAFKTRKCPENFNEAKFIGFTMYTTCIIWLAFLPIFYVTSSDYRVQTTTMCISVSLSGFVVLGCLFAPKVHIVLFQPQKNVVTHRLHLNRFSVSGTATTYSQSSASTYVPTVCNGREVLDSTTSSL
# Sequence of Botulinum neurotoxin type F (P30996 1-436 limits assumed): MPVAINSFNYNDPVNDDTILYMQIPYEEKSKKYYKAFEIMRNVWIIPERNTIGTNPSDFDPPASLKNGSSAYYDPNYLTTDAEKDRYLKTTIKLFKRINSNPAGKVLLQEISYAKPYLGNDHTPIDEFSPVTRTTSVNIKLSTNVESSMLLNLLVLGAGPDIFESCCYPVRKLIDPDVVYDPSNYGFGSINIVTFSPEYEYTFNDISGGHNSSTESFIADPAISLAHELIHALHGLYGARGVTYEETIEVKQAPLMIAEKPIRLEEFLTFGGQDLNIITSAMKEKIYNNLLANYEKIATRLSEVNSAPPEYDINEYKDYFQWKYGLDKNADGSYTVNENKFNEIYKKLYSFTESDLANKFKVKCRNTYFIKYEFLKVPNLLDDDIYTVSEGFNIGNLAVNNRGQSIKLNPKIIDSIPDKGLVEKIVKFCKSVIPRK
# Sequence of Latent membrane protein 1 (P03230 whole entry): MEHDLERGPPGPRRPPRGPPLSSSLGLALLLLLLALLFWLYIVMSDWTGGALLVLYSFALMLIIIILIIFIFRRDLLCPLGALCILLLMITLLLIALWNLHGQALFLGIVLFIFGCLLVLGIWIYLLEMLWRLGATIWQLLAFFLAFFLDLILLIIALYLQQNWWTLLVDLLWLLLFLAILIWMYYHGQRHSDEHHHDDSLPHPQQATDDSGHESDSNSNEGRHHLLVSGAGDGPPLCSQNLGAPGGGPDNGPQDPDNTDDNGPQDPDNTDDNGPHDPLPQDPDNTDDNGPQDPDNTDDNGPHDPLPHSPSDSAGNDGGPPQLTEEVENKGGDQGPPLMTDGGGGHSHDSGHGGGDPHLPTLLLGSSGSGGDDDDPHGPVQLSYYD
# Sequence of Beta-lactamase (Salmonella choleraesuis (strain SC-B67), UniProt Q5J463) (Q5J463 whole entry): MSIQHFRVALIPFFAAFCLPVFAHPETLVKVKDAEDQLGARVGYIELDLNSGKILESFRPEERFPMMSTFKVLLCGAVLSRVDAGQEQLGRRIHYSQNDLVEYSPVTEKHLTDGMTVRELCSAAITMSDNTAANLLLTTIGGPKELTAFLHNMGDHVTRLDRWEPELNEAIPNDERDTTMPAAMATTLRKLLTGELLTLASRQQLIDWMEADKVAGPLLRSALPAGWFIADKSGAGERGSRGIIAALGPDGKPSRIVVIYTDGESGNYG
# Sequence of 1-phosphatidylinositol 4,5-bisphosphate phosphodiesterase beta-3 (Q01970 whole entry): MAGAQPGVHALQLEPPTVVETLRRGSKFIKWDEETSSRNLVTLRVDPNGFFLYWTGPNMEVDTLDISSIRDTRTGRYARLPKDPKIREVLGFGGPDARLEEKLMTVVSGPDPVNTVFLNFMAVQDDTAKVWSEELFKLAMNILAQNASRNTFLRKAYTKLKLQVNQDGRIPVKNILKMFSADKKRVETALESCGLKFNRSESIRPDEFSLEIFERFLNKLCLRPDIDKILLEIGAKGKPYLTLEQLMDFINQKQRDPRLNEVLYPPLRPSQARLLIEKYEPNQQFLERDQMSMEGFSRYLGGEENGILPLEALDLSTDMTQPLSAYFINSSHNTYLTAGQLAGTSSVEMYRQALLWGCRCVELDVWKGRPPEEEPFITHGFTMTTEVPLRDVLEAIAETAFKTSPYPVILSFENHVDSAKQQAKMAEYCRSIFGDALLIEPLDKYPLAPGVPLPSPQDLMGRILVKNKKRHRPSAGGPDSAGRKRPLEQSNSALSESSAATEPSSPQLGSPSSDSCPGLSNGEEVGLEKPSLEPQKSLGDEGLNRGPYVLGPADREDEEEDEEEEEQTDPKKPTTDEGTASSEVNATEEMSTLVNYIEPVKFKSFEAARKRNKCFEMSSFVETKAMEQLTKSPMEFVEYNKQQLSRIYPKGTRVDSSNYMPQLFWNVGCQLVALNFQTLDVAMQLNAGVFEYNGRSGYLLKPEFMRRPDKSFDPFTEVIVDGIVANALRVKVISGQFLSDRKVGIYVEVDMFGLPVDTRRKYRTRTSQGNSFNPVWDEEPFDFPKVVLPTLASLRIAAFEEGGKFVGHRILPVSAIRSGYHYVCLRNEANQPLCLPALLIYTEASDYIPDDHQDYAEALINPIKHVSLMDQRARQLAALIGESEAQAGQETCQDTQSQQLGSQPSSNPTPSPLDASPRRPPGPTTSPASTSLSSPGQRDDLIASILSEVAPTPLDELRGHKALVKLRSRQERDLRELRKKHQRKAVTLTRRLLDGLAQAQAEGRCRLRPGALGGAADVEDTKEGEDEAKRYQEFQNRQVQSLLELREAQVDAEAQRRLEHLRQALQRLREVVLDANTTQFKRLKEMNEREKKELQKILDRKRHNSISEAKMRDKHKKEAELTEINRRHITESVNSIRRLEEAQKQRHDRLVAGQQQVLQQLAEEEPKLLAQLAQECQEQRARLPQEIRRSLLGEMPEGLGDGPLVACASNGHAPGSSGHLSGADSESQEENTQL
# Sequence of Galanin receptor type 3 (O60755 whole entry): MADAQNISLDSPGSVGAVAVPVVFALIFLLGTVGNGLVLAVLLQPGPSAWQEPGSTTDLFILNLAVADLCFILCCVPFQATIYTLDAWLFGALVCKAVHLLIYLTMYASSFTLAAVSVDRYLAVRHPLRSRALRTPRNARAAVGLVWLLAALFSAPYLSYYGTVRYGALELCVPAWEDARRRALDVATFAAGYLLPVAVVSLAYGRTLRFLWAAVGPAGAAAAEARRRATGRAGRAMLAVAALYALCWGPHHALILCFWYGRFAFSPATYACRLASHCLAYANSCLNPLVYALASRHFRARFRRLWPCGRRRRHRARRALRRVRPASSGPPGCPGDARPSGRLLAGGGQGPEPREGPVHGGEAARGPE
structure (smiles),measurement,setting,value
Cc1cc(C)c2nc(N3CCN(C(=O)c4ccco4)CC3)sc2c1,EC50,cells [1],55.3 µM (active)
same,IC50,[2],> 67.5 µM (inactive)
same,IC50,cells [3],> 67.5 µM (inactive)
same,EC50,cells [4],> 350 µM (not active)
O=C(CSc1nnc(NC(=O)c2ccccc2[N+](=O)[O-])s1)NCc1ccco1,IC50,Beta-lactamase [5],> 59.6 µM (inactive)
same,IC50,Beta-lactamase [6],> 59.6 µM (inactive)
same,IC50,Beta-lactamase [7],> 59.6 µM (inactive)
CC1CC(=O)NN=C1c1ccc(N(C)C)c([N+](=O)[O-])c1 (stereo unspecified),EC50,[8],0.149 µM (active)
same,IC50,Galanin receptor type 3,1.72 µM (active)
same,EC50,cells [9],> 29.9 µM (inactive)
same,EC50,[10],> 112 µM (not active)
C=CCc1c(O)c(CC)cc2c(C)cc(=O)oc12,AC50,cells [11],0.903 µM (active)
C=CCn1c(CCNC(=O)c2cccs2)nnc1SCC(=O)c1ccc(Cl)cc1,EC50,[12],0.00153 µM (active)
same,EC50,[13],0.167 µM (active)
CN1C(=O)CSc2ccc(NC(=O)Nc3ccccn3)cc21,EC50,[14],> 29.9 µM (inactive)
same,IC50,[15],5.8 µM (active)
same,EC50,[16],> 29.9 µM (inactive)
same,IC50,H9c2,49 µM (inactive)
same,IC50,[17],> 29.9 µM (inactive)
COc1ccc(NC(=O)c2ccc(OC(=S)N(C)c3ccc(OC)cc3)cc2)cc1,IC50,Beta-galactosidase,> 80 µM (inactive)
O=C(/C=C/c1ccccc1)N1CCC(c2ccccc2)C1 (stereo unspecified),EC50,[18],> 67.5 µM (inactive)
COc1ccc(Cc2nnc(SCC(=O)N3CCc4ccccc4C3)o2)cc1,IC50,Caspase-3,48.1 µM (active)
same,IC50,[19],10.3 µM (active)
same,IC50,[20],72.5 µM (inactive)
Cc1c(N2C(=O)c3cccc4cccc(c34)C2=O)c(=O)n(-c2ccccc2)n1C,IC50,[21],> 122 µM (inactive)
same,IC50,[22],> 122 µM (inactive)
COc1ccc(C(=O)OCC(=O)c2c[nH]c3ccccc23)cc1OC,AC50,[23],164 µM (active)
same,EC50,[24],> 20 µM (inactive)
Cc1cc2cc(CNC(=O)c3ccco3)ccc2n1C,IC50,Protein skinhead-1,73.3 µM (inactive)
same,AC50,cells [25],> 52 µM (inactive)
CN(CC(=O)N1CCN(c2ccccn2)CC1)S(=O)(=O)c1ccc(Cl)cc1,EC50,[26],0.357 µM (active)
same,EC50,[13],0.0396 µM (active)
COc1ccccc1-c1ccc(-c2cn(C(=O)N3CCCCC3Cc3ccccc3)nn2)cc1 (stereo unspecified),IC50,[27],0.1 µM (active)
same,IC50,[28],0.001 µM (active)
same,IC50,[29],0.056 µM (active)
O=C(Nc1ccc2c(c1)OCO2)c1cc(C2CCCCN2C(=O)OCCF)on1 (stereo unspecified),AC50,Vero,31.8 µM (active)
COc1ccc(C#Cc2ccc(C(=O)N3CC4CCC(=O)C4C3)cc2)cc1 (stereo unspecified),IC50,[30],2.05 µM
CN(C(=O)Cc1cccs1)c1nc2c(s1)CCCC2,IC50,[31],2.92 µM (active)
CO[C@H]1CN(C)C(=O)c2ccc(NC(=O)Nc3cc(Cl)cc(Cl)c3)cc2OC[C@H](C)NC[C@@H]1C,AC50,[32],41.1 µM (active)
same,AC50,[33],30.9 µM (active)
COc1ccccc1C(=O)Nc1cccc(NC(=O)c2ccccc2)c1,IC50,[34],1.74 µM (active)
